From patent publication US8143243B2, “Compounds for the treatment of hepatitis C” (Bristol-Myers Squibb Company, priority 2007, dated 2012)
Where two headings read alike, the source gives them in different places.

How the values were obtained:
HCV NS5B = target: T1, HCV NS5B (Hepatitis C virus genotype 1b, UniProt Q9WMX2); experiment: HCV NS5B RdRp enzyme assay (standard / modified); assay type: biochemical
T1 construct: The protein was expressed with an 18 amino acid C-terminal truncation to enhance the solubility; made in house; host or cells: E. coli BL21 (DE3)
T1 sequence (Q9WMX2 2420-2992): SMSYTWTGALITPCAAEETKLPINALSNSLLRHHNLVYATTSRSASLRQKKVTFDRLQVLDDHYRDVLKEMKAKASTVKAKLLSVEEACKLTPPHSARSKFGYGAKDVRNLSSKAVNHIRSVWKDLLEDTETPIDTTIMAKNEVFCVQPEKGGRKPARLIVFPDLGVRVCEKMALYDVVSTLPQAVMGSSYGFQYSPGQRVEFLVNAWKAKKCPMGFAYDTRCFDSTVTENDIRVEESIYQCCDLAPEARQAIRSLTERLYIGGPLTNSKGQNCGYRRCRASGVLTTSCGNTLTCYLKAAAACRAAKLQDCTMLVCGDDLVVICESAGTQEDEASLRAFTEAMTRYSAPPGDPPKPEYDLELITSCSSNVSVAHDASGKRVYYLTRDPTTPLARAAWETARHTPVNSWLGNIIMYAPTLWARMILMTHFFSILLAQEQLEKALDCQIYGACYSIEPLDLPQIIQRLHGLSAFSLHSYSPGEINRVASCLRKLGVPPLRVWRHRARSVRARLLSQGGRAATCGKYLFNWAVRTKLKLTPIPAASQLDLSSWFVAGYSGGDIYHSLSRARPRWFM
Summary of the method: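 SPA detection of 3H-UTP (0.29 μM) incorporation by C-terminally truncated (18 aa) genotype 1b NS5B from E. coli, on polyA/biotin-oligo-dT12 at 30° C, pH 7.5 Hepes, 2% DMSO. Modified format: 14 nM enzyme, 0.2 nM template, 20 nM primer prebound to beads, 4 h; standard: 28 nM, 6 nM, 180 nM free primer, 60 min. Seven-point IC50 fit.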

HCV replicon cells = experiment: HCV replicon FRET / luciferase assay; assay type: cell-based; conditions: Hepatitis C virus
Description: FRET Assay Preparation. To perform the HCV FRET screening assay, 96-well cell culture plates were used. The FRET peptide (Anaspec, Inc.) (Taliani et al., Anal. Biochem. 1996, 240, 60-67) contains a fluorescence donor, EDANS, near one end of the peptide and an acceptor, DABCYL, near the other end. The fluorescence of the peptide is quenched by […] resonance energy transfer (RET) between the donor and the acceptor, but as the NS3 protease cleaves the peptide the products are released from RET quenching and the fluorescence of the donor becomes apparent. The assay reagent was made as follows: 5× cell Luciferase cell culture lysis reagent from Promega (#E153A) diluted to 1× with dH2O, NaCl added to 150 mM final, the FRET peptide diluted to 20 μM final from a 2 mM stock.
To prepare plates, HCV replicon cells, with or without a Renilla luciferase reporter gene, were trypsinized and placed into each well of a 96-well plate with titrated test compounds added in columns 3 through 12; columns 1 and 2 contained a control compound (HCV protease inhibitor), and the bottom row contained cells without compound. The plates were then placed in a CO2 incubator at 37° C.
Assays. Subsequent to addition of the test compounds described above (FRET Assay Preparation), at various times the plate was removed and Alamar blue solution (Trek Diagnostics, #00-100) was added per well as a measure of cellular toxicity. After reading in a Cytoflour 4000 instrument (PE Biosystems), plates were rinsed with PBS and then used for FRET assay by the addition of 30 ul of the FRET peptide assay reagent described above (FRET Assay Preparation) per well. The plate was then placed into the Cytoflour 4000 instrument which had been set to 340 excite/490 emission, automatic mode for 20 cycles and the plate read in a kinetic mode. Typically, the signal to noise using an endpoint analysis after the reads was at least three-fold. Alternatively, after Alamar blue reading, plates were rinsed with PBS, 50 ul of DMEM (high glucose) without phenol red was added and plates were then used for luciferase assay using the Promega Dual-Glo Luciferase Assay System.
Compound analysis was determined by quantification of the relative HCV replicon inhibition and the relative cytotoxicity values. To calculate cytoxicity values, the average Alamar Blue fluorescence signals from the control wells were set as 100% non-toxic. The individual signals in each of the compound test wells were then divided by the average control signal and multiplied by 100% to determine […]. To calculate the HCV replicon inhibition values, an average background value was obtained from the two wells containing the highest amount of HCV protease inhibitor at the end of the assay period. These numbers were similar to those obtained from naïve Huh-7 cells.
The background numbers were then subtracted from the average signal obtained from the control wells and this number was used as 100% activity. The individual signals in each of the compound test wells were then divided by the averaged control values after background subtraction and multiplied by 100% to determine percent activity. EC50 values for a protease inhibitor titration were calculated as the concentration which caused a 50% reduction in FRET or luciferase activity. The two numbers generated for the compound plate, percent cytoxicity and percent activity were used to determine compounds of interest for further analysis.

[1] = HCV RdRp genotype 1b enzyme, read-out: IC50
[2] = HCV replicon cells, FRET or luciferase readout, read-out: EC50

## CCC(C)S(=O)(=O)NC(=O)c1ccc2c(C3CCCCC3)c3n(c2c1)CC(c1c(C(=O)N2C4CCCC2COC4)cnn1C)=Cc1cc(OC)ccc1-3 (centres unmarked)
HCV NS5B
  IC50: 1 to 500 nM
HCV replicon cells
  EC50: 1 to 500 nM

## COc1ccc2c(c1)C=C(c1c(C(=O)N3CCOCC3)cnn1C)Cn1c-2c(C2CCCCC2)c2ccc(C(=O)NS(=O)(=O)CC(C)C)cc21
HCV NS5B; [1]
  IC50: 1 to 500 nM
HCV replicon cells; [2]
  EC50: 1 to 500 nM

## COc1ccc2c(c1)C=C(c1c(C(=O)N3[C@@H]4CC[C@H]3CN(C)C4)cnn1C)Cn1c-2c(C2CCCCC2)c2ccc(C(=O)NS(=O)(=O)N3CCOCC3)cc21
HCV NS5B
  IC50: 1 to 500 nM
HCV replicon cells
  EC50: 1 to 500 nM

## COc1ccc2c(c1)C=C(c1c(C(=O)N3CC(C)OC(C)C3)cnn1C(C)C)Cn1c-2c(C2CCCCC2)c2ccc(C(=O)NS(=O)(=O)C(C)C)cc21 (centres unmarked)
HCV NS5B; [1]
  IC50: 1 to 500 nM
HCV replicon cells; [2]
  EC50: 1 to 500 nM

## CCN1C[C@@H]2C[C@H]1CN2C(=O)c1c(C)nn(C(C)C)c1C1=Cc2cc(OC)ccc2-c2c(C3CCCCC3)c3ccc(C(=O)NS(=O)(=O)C(C)C)cc3n2C1
HCV NS5B; [1]
  IC50: 1 to 500 nM
HCV replicon cells; [2]
  EC50: 1 to 500 nM

## COc1ccc2c(c1)C=C(c1c(C(=O)N3C4COCC3COC4)cnn1C(C)C)Cn1c-2c(C2CCCCC2)c2ccc(C(=O)NS(=O)(=O)C(C)C)cc21
HCV NS5B
  IC50: 1 to 500 nM
HCV replicon cells
  EC50: 1 to 500 nM

## COc1ccc2c(c1)C=C(c1c(C(=O)N3CCOCC3)cnn1C(C)C)Cn1c-2c(C2CCCCC2)c2ccc(C(=O)NS(=O)(=O)N(C)C)cc21
HCV NS5B; [1]
  IC50: 1 to 500 nM
HCV replicon cells; [2]
  EC50: 1 to 500 nM

## COc1ccc2c(c1)C=C(c1c(C(=O)N3CC4CCC(C3)N4C)c(C(F)(F)F)nn1C)Cn1c-2c(C2CCCCC2)c2ccc(C(=O)NS(=O)(=O)C(C)C)cc21
HCV NS5B
  IC50: 1 to 500 nM
HCV replicon cells
  EC50: 1 to 500 nM

## COc1ccc2c(c1)C=C(c1c(C(=O)N3C[C@@H](C)O[C@@H](C)C3)cnn1C)Cn1c-2c(C2CCCCC2)c2ccc(C(=O)NS(=O)(=O)C(C)C)cc21
HCV NS5B; [1]
  IC50: 1 to 500 nM
HCV replicon cells; [2]
  EC50: 1 to 500 nM

## COc1ccc2c(c1)C=C(c1c(C(=O)N3C[C@@H](C)O[C@@H](C)C3)cnn1CC(C)C)Cn1c-2c(C2CCCCC2)c2ccc(C(=O)NS(=O)(=O)C(C)C)cc21
HCV NS5B; [1]
  IC50: 1 to 500 nM
HCV replicon cells; [2]
  EC50: 1 to 500 nM

## COc1ccc2c(c1)C=C(c1c(C(=O)N3CC4CCC(C3)O4)cnn1C(C)C)Cn1c-2c(C2CCCCC2)c2ccc(C(=O)NS(=O)(=O)C(C)C)cc21
HCV NS5B; [1]
  IC50: 1 to 500 nM
HCV replicon cells; [2]
  EC50: 1 to 500 nM

## COc1ccc2c(c1)C=C(c1ocnc1C(=O)N1CCOCC1)Cn1c-2c(C2CCCCC2)c2ccc(C(=O)O)cc21
HCV NS5B; [1]
  IC50: 1 to 500 nM
HCV replicon cells; [2]
  EC50: 1 to 500 nM

## COc1ccc2c(c1)C=C(c1sccc1C(=O)O)Cn1c-2c(C2CCCCC2)c2ccc(C(=O)NS(=O)(=O)C(C)C)cc21
HCV NS5B; [1]
  IC50: 1 to 500 nM
HCV replicon cells; [2]
  EC50: > 40 nM

## COc1ccc2c(c1)C=C(c1c(C(=O)N3C[C@@H](C)N(C)[C@@H](C)C3)cnn1C)Cn1c-2c(C2CCCCC2)c2ccc(C(=O)NS(=O)(=O)N3CCOCC3)cc21
HCV NS5B; [1]
  IC50: 1 to 500 nM
HCV replicon cells; [2]
  EC50: 1 to 500 nM

## CCn1ncc(C(=O)N2CCN(C)CC2)c1C1=Cc2cc(OC)ccc2-c2c(C3CCCCC3)c3ccc(C(=O)NS(=O)(=O)N4CCCC4)cc3n2C1
HCV NS5B; [1]
  IC50: 1 to 500 nM
HCV replicon cells; [2]
  EC50: 1 to 500 nM

## COc1ccc2c(c1)C=C(c1c(C(=O)N3C[C@@H]4C[C@H]3CO4)cnn1CC(F)(F)F)Cn1c-2c(C2CCCCC2)c2ccc(C(=O)NS(=O)(=O)C(C)C)cc21
HCV NS5B; [1]
  IC50: 1 to 500 nM
HCV replicon cells; [2]
  EC50: 1 to 500 nM

## COc1ccc2c(c1)C=C(c1c(C(=O)N3C4CCC3CN(C)C4)cnn1C)Cn1c-2c(C2CCCCC2)c2ccc(C(=O)NS(=O)(=O)C3CCC3)cc21
HCV NS5B
  IC50: 1 to 500 nM
HCV replicon cells
  EC50: 1 to 500 nM

## COc1ccc2c(c1)C=C(c1c(C(=O)N(C)C3CCN(C)C3)cnn1C)Cn1c-2c(C2CCCCC2)c2ccc(C(=O)NS(=O)(=O)N3CCOCC3)cc21 (centres unmarked)
HCV NS5B; [1]
  IC50: 1 to 500 nM
HCV replicon cells; [2]
  EC50: 1 to 500 nM

## COc1ccc2c(c1)C=C(c1c(C(=O)N3C4CCCC3COC4)cnn1C)Cn1c-2c(C2CCCCC2)c2ccc(C(=O)NS(=O)(=O)CC(C)C)cc21
HCV NS5B
  IC50: 1 to 500 nM
HCV replicon cells
  EC50: 1 to 500 nM

## COc1ccc2c(c1)C=C(c1ocnc1C(=O)N1CCOCC1)Cn1c-2c(C2CCCCC2)c2ccc(C(=O)NS(=O)(=O)N(C)C)cc21
HCV NS5B; [1]
  IC50: 1 to 500 nM
HCV replicon cells; [2]
  EC50: 1 to 500 nM

## COc1ccc2c(c1)C=C(c1c(C(=O)N3C4CCC3CN(C)C4)cnn1C)Cn1c-2c(C2CCCCC2)c2ccc(C(=O)NS(=O)(=O)C3CC3)cc21
HCV NS5B
  IC50: 1 to 500 nM
HCV replicon cells
  EC50: 1 to 500 nM

## CCn1ncc(C(=O)N2CCOCC2)c1C1=Cc2cc(OC)ccc2-c2c(C3CCCCC3)c3ccc(C(=O)NS(=O)(=O)N4CCCC4)cc3n2C1
HCV NS5B; [1]
  IC50: 1 to 500 nM
HCV replicon cells; [2]
  EC50: 1 to 500 nM

## COc1ccc2c(c1)C=C(c1ocnc1C(=O)O)Cn1c-2c(C2CCCCC2)c2ccc(C(=O)OC(C)(C)C)cc21
HCV NS5B; [1]
  IC50: > 40 nM
HCV replicon cells; [2]
  EC50: > 40 nM

## COc1ccc2c(c1)C=C(c1c(C(=O)N3CCOCC3)c(C)nn1C)Cn1c-2c(C2CCCCC2)c2ccc(C(=O)NS(=O)(=O)N(C)C)cc21
HCV NS5B; [1]
  IC50: 1 to 500 nM
HCV replicon cells; [2]
  EC50: 1 to 500 nM

## COc1ccc2c(c1)C=C(c1c(C(=O)N3CCN4CCCC4C3)cnn1C)Cn1c-2c(C2CCCCC2)c2ccc(C(=O)NS(=O)(=O)C3CCC3)cc21 (centres unmarked)
HCV NS5B; [1]
  IC50: 1 to 500 nM
HCV replicon cells; [2]
  EC50: 1 to 500 nM

## COc1ccc2c(c1)C=C(c1c(C(=O)N3CC4CCC(C3)N4C)cnn1C(C)C)Cn1c-2c(C2CCCCC2)c2ccc(C(=O)NS(=O)(=O)C(C)C)cc21
HCV NS5B
  IC50: 1 to 500 nM
HCV replicon cells
  EC50: 1 to 500 nM

## COc1ccc2c(c1)C=C(c1c(C(=O)N3CCN4CCC3CC4)cnn1C)Cn1c-2c(C2CCCCC2)c2ccc(C(=O)NS(=O)(=O)N3CCOCC3)cc21
HCV NS5B; [1]
  IC50: 1 to 500 nM
HCV replicon cells; [2]
  EC50: 1 to 500 nM

## CCn1nc(C)c(C(=O)N2C[C@@H]3C[C@H]2CO3)c1C1=Cc2cc(OC)ccc2-c2c(C3CCCCC3)c3ccc(C(=O)NS(=O)(=O)C(C)C)cc3n2C1
HCV NS5B; [1]
  IC50: 1 to 500 nM
HCV replicon cells; [2]
  EC50: 1 to 500 nM

## COc1ccc2c(c1)C=C(c1occc1C(=O)N1C3CCC1CN(C)C3)Cn1c-2c(C2CCCCC2)c2ccc(C(=O)NS(=O)(=O)C(C)C)cc21
HCV NS5B
  IC50: 1 to 500 nM
HCV replicon cells
  EC50: 1 to 500 nM

## CCn1nc(C)c(C(=O)N2CC3CCC(C2)N3C)c1C1=Cc2cc(OC)ccc2-c2c(C3CCCCC3)c3ccc(C(=O)NS(=O)(=O)C(C)C)cc3n2C1
HCV NS5B
  IC50: 1 to 500 nM
HCV replicon cells
  EC50: 1 to 500 nM

## COc1ccc2c(c1)C=C(c1c(C(=O)N3[C@@H]4CC[C@H]3CN(C)C4)cnn1C(C)C)Cn1c-2c(C2CCCCC2)c2ccc(C(=O)NS(=O)(=O)CC(C)C)cc21
HCV NS5B
  IC50: 1 to 500 nM
HCV replicon cells
  EC50: 1 to 500 nM

## COc1ccc2c(c1)C=C(c1c(C(=O)N3C4CCC3CN(C)C4)cnn1C)Cn1c-2c(C2CCCCC2)c2ccc(C(=O)NS(=O)(=O)C3CCCC3)cc21
HCV NS5B
  IC50: 1 to 500 nM
HCV replicon cells
  EC50: 1 to 500 nM

## COc1ccc2c(c1)C=C(c1c(C(=O)N3CCOCC3)cnn1C(C)C)Cn1c-2c(C2CCCCC2)c2ccc(C(=O)NS(=O)(=O)CC(C)C)cc21
HCV NS5B; [1]
  IC50: 1 to 500 nM
HCV replicon cells; [2]
  EC50: 1 to 500 nM

## COC[C@@H]1CN(C(=O)c2c(C(F)(F)F)nn(C)c2C2=Cc3cc(OC)ccc3-c3c(C4CCCCC4)c4ccc(C(=O)NS(=O)(=O)C(C)C)cc4n3C2)CCO1
HCV NS5B; [1]
  IC50: 1 to 500 nM
HCV replicon cells; [2]
  EC50: 1 to 500 nM
